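Following 48 hours of exposure in 96-well plates, responses at five concentrations were used to interpolate endpoints linearly. TGI marks complete inhibition of growth.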
What was measured:
Assay in all cases: NCI-60 cell line screen, 48 h
[1] = tested on: 786-0 renal
[2] = tested on: A549 NSCLC
[3] = tested on: ACHN renal
[4] = tested on: CCRF-CEM leukemia
[5] = tested on: COLO 205 colon
[6] = tested on: DLD-1 colon
[7] = tested on: DMS 114 small cell lung
[8] = tested on: EKVX NSCLC
[9] = tested on: HCC-2998 colon
[10] = tested on: HCT-15 colon
[11] = tested on: HL-60(TB) leukemia
[12] = tested on: HOP-18 NSCLC
[13] = tested on: HOP-92 NSCLC
[14] = tested on: K-562 leukemia
[15] = tested on: KM12 colon
[16] = tested on: LOX IMVI melanoma
[17] = tested on: M14 melanoma
[18] = tested on: M19-MEL melanoma
[19] = tested on: MALME-3M melanoma
[20] = tested on: MOLT-4 leukemia
[21] = tested on: NCI-H226 lung
[22] = tested on: NCI-H23 lung
[23] = tested on: NCI-H522 lung
[24] = tested on: OVCAR-3 ovarian
[25] = tested on: OVCAR-5 ovarian
[26] = tested on: OVCAR-8 ovarian
[27] = tested on: RPMI-8226 leukemia
[28] = tested on: RXF 393 renal
[29] = tested on: SF-268 CNS
[30] = tested on: SF-295 CNS
[31] = tested on: SF-539 CNS
[32] = tested on: SK-MEL-2 melanoma
[33] = tested on: SK-MEL-28 melanoma
[34] = tested on: SN12C renal
[35] = tested on: SNB-19 CNS
[36] = tested on: SNB-75 CNS
[37] = tested on: SNB-78 CNS
[38] = tested on: SR leukemia
[39] = tested on: SW-620 colon
[40] = tested on: TK-10 renal
[41] = tested on: U251 CNS
[42] = tested on: UACC-257 melanoma
[43] = tested on: UO-31 renal
[44] = tested on: XF 498 CNS
[45] = tested on: A498 renal
[46] = tested on: CAKI-1 renal
[47] = tested on: DMS 273 small cell lung
[48] = tested on: HCT-116 colon
[49] = tested on: HOP-62 NSCLC
[50] = tested on: HT29 colon
[51] = tested on: IGROV1 ovarian
[52] = tested on: KM20L2 colon
[53] = tested on: LXFL 529 NSCLC
[54] = tested on: NCI-H460 lung
[55] = tested on: OVCAR-4 ovarian
[56] = tested on: SK-MEL-5 melanoma
[57] = tested on: SK-OV-3 ovarian
[58] = tested on: UACC-62 melanoma

Compound `O=C1C2C3C=C4c5ccccc5N(c5ccccc5)C4([C@@H]2C(=O)N1c1ccc(F)cc1)[C@H]1C(=O)N(c2ccc(F)cc2)C(=O)[C@@H]31` (some centres not stated) has a TGI [1] greater than 100 µM, a TGI [2] greater than 100 µM and a TGI [3] greater than 100 µM. For the same compound, the TGI [4] was greater than 100 µM, the TGI [5] was greater than 100 µM and the TGI [6] was greater than 100 µM. The TGI [7] was greater than 100 µM, the TGI [8] was greater than 100 µM and the TGI [9] was greater than 100 µM. The TGI [10] was greater than 100 µM, the TGI [11] was greater than 100 µM and the TGI [12] was greater than 100 µM. The TGI [13] was greater than 100 µM, the TGI [14] was greater than 100 µM and the TGI [15] was greater than 100 µM. It also gave a TGI [16] greater than 100 µM, a TGI [17] greater than 100 µM and a TGI [18] greater than 100 µM. For the same compound, the TGI [19] was greater than 100 µM, the TGI [20] was greater than 100 µM and the TGI [21] was greater than 100 µM. For the same compound, the TGI [22] was greater than 100 µM, the TGI [23] was greater than 100 µM and the TGI [24] was greater than 100 µM. The TGI [25] was greater than 100 µM, the TGI [26] was greater than 100 µM and the TGI [27] was greater than 100 µM. The TGI [28] was greater than 100 µM, the TGI [29] was greater than 100 µM and the TGI [30] was greater than 100 µM. It also gave a TGI [31] greater than 100 µM, a TGI [32] greater than 100 µM and a TGI [33] greater than 100 µM. The TGI [34] was greater than 100 µM, the TGI [35] was greater than 100 µM and the TGI [36] was greater than 100 µM. It also gave a TGI [37] greater than 100 µM, a TGI [38] greater than 100 µM and a TGI [39] greater than 100 µM. For the same compound, the TGI [40] was greater than 100 µM, the TGI [41] was greater than 100 µM and the TGI [42] was greater than 100 µM. For the same compound, the TGI [43] was 88.6 µM and the TGI [44] was greater than 100 µM.

`COC(=O)C(=O)C(C(C)=O)C(=O)C(=O)Nc1ccc(C)cc1C` (configuration not stated) was tested, and the TGI [45] was greater than 100 µM, the TGI [2] was greater than 100 µM and the TGI [3] was greater than 100 µM. The TGI [46] was greater than 100 µM, the TGI [4] was greater than 100 µM and the TGI [5] was greater than 100 µM. The TGI [6] was greater than 100 µM, the TGI [7] was greater than 100 µM and the TGI [47] was greater than 100 µM. For the same compound, the TGI [8] was greater than 100 µM, the TGI [9] was greater than 100 µM and the TGI [48] was greater than 100 µM. The TGI [10] was greater than 100 µM, the TGI [11] was greater than 100 µM and the TGI [49] was greater than 100 µM. The TGI [13] was greater than 100 µM, the TGI [50] was greater than 100 µM and the TGI [51] was greater than 100 µM. It also gave a TGI [14] greater than 100 µM, a TGI [15] greater than 100 µM and a TGI [52] greater than 100 µM. The TGI [16] was greater than 100 µM, the TGI [53] was greater than 100 µM and the TGI [17] was greater than 100 µM. For the same compound, the TGI [18] was greater than 100 µM, the TGI [20] was greater than 100 µM and the TGI [21] was greater than 100 µM. It also gave a TGI [22] greater than 100 µM, a TGI [54] greater than 100 µM and a TGI [23] greater than 100 µM. It also gave a TGI [55] greater than 100 µM, a TGI [25] greater than 100 µM and a TGI [26] greater than 100 µM. The TGI [27] was greater than 100 µM, the TGI [28] was greater than 100 µM and the TGI [29] was greater than 100 µM. The TGI [30] was greater than 100 µM, the TGI [31] was greater than 100 µM and the TGI [32] was greater than 100 µM. The TGI [33] was greater than 100 µM, the TGI [56] was greater than 100 µM and the TGI [57] was greater than 100 µM. For the same compound, the TGI [34] was greater than 100 µM, the TGI [35] was greater than 100 µM and the TGI [36] was greater than 100 µM. It also gave a TGI [38] greater than 100 µM, a TGI [39] greater than 100 µM and a TGI [40] greater than 100 µM. For the same compound, the TGI [41] was greater than 100 µM, the TGI [42] was greater than 100 µM and the TGI [58] was greater than 100 µM. It also gave a TGI [43] greater than 100 µM and a TGI [44] greater than 100 µM.
